“Also recorded” adds a separate entry of the source.
Assays:
rat mGlu7 = rat mGlu7 (Rattus norvegicus, UniProt P35400); type: cell-based
[1] = Predicted hepatic clearance; type: in vitro ADME; conditions: for rat CLhep: Table 1, predicted hepatic clearance; for Rat CLhep: Table 2, predicted hepatic clearance
[2] = Predicted hepatic clearance; type: in vitro ADME
Rat plasma:brain level = type: in vivo; conditions: rat PBL IV cassette
[3] = Discrete iv and po pharmacokinetics in rat; type: in vivo; conditions: plasma, 0.2 mg/kg
mGlu1–6,8 = test: Selectivity versus the other seven mGlu receptors; type: cell-based
5-HT2B receptor = 5-HT2B receptor (Homo sapiens, UniProt P41595); test: Eurofins lead profiling panel of 68 GPCRs, ion channels, and transporters; type: binding; conditions: at 10 μM; only target of 68 above 50%
30 mg/kg = type: in vivo, rat
mice [4] = test: Elevated zero maze; type: in vivo, mouse
mice [5] = test: Light/dark box assay; type: in vivo, mouse; conditions: vs vehicle
mice [6] = test: Mouse marble-burying assay; type: in vivo; conditions: vs vehicle
[7] = system: hippocampus (native tissues); conditions: cited from earlier work

Sequence of rat mGlu7 (P35400 35-915): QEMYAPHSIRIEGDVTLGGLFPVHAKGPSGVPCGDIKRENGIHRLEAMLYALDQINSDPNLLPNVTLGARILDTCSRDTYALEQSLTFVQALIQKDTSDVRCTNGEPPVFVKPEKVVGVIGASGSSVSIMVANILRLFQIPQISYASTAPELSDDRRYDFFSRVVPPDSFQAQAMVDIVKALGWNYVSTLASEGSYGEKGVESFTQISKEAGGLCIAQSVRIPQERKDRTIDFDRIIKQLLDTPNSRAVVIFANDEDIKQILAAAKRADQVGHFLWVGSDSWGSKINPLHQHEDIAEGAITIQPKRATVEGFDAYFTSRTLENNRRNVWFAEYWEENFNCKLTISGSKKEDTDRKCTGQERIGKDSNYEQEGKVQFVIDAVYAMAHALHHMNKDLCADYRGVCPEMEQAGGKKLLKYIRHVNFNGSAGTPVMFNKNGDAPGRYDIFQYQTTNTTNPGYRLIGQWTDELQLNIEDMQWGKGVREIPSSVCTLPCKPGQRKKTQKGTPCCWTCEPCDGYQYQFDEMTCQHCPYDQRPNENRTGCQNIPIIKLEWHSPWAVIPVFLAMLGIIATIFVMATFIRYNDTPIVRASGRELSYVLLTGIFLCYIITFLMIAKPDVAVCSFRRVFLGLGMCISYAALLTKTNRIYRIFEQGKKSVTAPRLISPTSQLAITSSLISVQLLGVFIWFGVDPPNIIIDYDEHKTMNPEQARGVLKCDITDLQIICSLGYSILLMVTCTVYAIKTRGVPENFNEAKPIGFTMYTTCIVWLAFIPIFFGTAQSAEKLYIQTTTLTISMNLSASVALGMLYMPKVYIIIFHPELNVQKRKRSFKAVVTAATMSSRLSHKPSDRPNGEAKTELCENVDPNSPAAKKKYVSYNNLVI
Sequence of 5-HT2B receptor (P41595 whole entry): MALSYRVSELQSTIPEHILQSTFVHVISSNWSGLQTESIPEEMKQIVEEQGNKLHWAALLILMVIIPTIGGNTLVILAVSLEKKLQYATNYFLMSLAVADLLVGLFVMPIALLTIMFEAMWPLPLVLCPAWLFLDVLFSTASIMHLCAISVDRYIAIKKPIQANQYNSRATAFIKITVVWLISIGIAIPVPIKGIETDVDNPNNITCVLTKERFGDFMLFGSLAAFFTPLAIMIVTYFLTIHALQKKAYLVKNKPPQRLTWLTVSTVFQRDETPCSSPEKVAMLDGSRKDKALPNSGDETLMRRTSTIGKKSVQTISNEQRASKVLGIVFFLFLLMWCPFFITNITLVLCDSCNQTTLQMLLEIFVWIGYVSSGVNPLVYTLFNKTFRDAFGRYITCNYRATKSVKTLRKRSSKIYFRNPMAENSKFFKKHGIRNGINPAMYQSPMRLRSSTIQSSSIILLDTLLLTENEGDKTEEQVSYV

With `COc1cc(C(=O)Nc2cc(OC(F)(F)F)ccc2-n2cncn2)ccc1OCC(F)(F)F` [7a] the “mGlu7 NAM activity (in words)” value (rat mGlu7) was “inactive”.
With `COc1cc(C(=O)Nc2cc(OC(F)(F)F)ccc2-n2cncn2)ccc1OCC(C)(C)C` [7b] the “mGlu7 NAM activity (in words)” value (rat mGlu7) was “inactive”.
In the case of `COc1cc(F)c(OCCNc2cc(OC(F)(F)F)ccc2-n2cncn2)cc1OC` [6d], the “rat CLhep” value [1] is reported as 66.4 mL/min/kg.
In the case of `COc1cc(C(=O)Nc2cc(OC(F)(F)F)ccc2-n2cncn2)ccc1OCC1CC1` [7d, N-(2-(1H-1,2,4-Triazol-1-yl)-5-(trifluoromethoxy)phenyl)-4-(cyclopropylmethoxy)-3-methoxybenzamide], the “predicted hepatic clearance, rat CLhep” value [1] is reported as 15.9 mL min^–1 kg^–1, the “Rat CLhep” value [1] is reported as 15.9 mL/min/kg and the “predicted hepatic clearance in mouse, CLhep” value [2] is reported as 44.0 mL min^–1 kg^–1. The “[brain]tot” value (Rat plasma:brain level) was 375 nM, the clearance at 24 h [3] was 31.5 mL/min/kg and the “activity versus mGlu1–6,8” value (mGlu1–6,8) was greater than 10 µM. For the same compound, the “compound activity at 5-HT2B receptor” value (5-HT2B receptor) was “greater than 50%”, the “predicted unbound levels (CSF concentrations) above the in vitro IC50” value (30 mg/kg; at modest doses) was ~ 4 fold and the “[brain]tot” value (30 mg/kg; rat, 30 mg/kg ip) was 745 nM. For the same compound, the “[plasma]tot” value (30 mg/kg; rat, 30 mg/kg ip) was 598 nM, the “levels in CSF” value (30 mg/kg; rat, 30 mg/kg ip) was 1300 nM and the “time spent in the open arms” value (mice [4]; 3 mg/kg ip, vs VEH p < 0.05, 3 mg/kg) was “increased total time spent in the open arms; also recorded: increases time spent in the open arms”. For the same compound, the “overall locomotion / distance traveled” value (mice [4]; 10 mg/kg ip, 10 mg/kg) was “decrease in overall locomotion; also recorded: decreased distance traveled”, the “total time spent in the light side of the chamber” value (mice [5]; 3 mg/kg ip) was “increased total time spent in the light side of the chamber” and the “number of marbles buried” value (mice [6]; 3 mg/kg, 3 mg/kg) was “decreased the number of marbles buried; also recorded: reduced the number of marbles buried”.
For `COc1cc(F)c(CCCNc2cc(OC(F)(F)F)ccc2-n2cncn2)cc1OC` [6c], the “rat CLhep” value [1] was 66.4 mL/min/kg.
For `CNCCC(Oc1ccc(C(F)(F)F)cc1)c1ccccc1` (centres unmarked) [fluoxetine, reference compound], the “total time spent in the light side of the chamber” value (mice [5]; 15 mg/kg ip) was “increased total time spent in the light side of the chamber” and the “number of marbles buried” value (mice [6]; fluoxetine 15 mg/kg) was “decreased the number of marbles buried”.
With `COc1cc(C(=O)Nc2cc(OC(F)(F)F)ccc2-n2cncn2)ccc1OCC(C)C` [7c] the “mGlu7 NAM activity (in words)” value (rat mGlu7) was “restored mGlu7 NAM activity” and the “Rat CLhep” value [1] was 38.4 mL/min/kg.
With `COc1ccc(CNc2cc(OC(F)(F)F)ccc2-n2cncn2)cc1OC` [6a] the “% L-AP4 min” value (rat mGlu7) was 17 ± 3%.
For `COc1ccc(C(=O)Nc2cc(OC(F)(F)F)ccc2-n2cncn2)cc1OC` [compound 5], the “blocking high-frequency-stimulated LTP in the hippocampus” value [7] is given as “robust efficacy”.
In the case of `COc1ccc(CCCNc2cc(OC(F)(F)F)ccc2-n2cncn2)cc1OC` [6b], the “rat CLhep” value [1] is reported as 68.1 mL/min/kg.

Reference: paper PMC6501583 (Journal of medicinal chemistry, 2019)
